Reference: patent US20250152559A1, “METHODS FOR TREATING MYC-AMPLIFIED CANCER” (The Governing Council of the University of Toronto, priority 2023, published 2025)
Values joined by “and” are separate entries in the source; they are usually repeats but may differ in a detail not shown here. Identical values can stand only once.

Tests used:
SU_MB002 PDOX = experiment: Orthotopic PDOX model, tumor burden and survival; type: in vivo, mice; settings: orthotopic SU_MB002, BAY R1
Description: The treatment-naïve, patient-derived cell line, HD-MB03, was orthotopically engrafted into immunocompromised mice. Four days later, tumors were readily detectible via bioluminescence imaging. Thereafter mice were randomized into three cohorts, which were treated with either the vehicle or one of two BAY treatment regimens (R1 and R2; FIG. 5B).
PDOX were generated by engrafting 25,000 tumor cells (both SU_MB002 and HD-MB03 cell lines), suspended in 5 μL PBS, directly into the mouse cerebrum. Flank xenografts were generated by engrafting 2,000,000 tumor cells suspended in a 100 μL solution of PBS/Matrigel® (1:1 v/v). For preclinical studies, cells were engineered to express enhanced firefly luciferase. […] Flank tumors were isolated at matched time points and formalin fixed for 48 hours, paraffin embedded (FFPE) and sectioned for follow-up analysis. Tumor area was manually measured in H&E-stained sections of FFPE tissues using ImageJ.
For imaging via the in vivo imaging system (IVIS), mice were sedated with isoflurane gas and then administered luciferin substrate (150 mg/kg in PBS) via subcutaneous injection. After 10 minutes, bioluminescent signal (photons per second; p/s) was quantified using Living Image software.

[1] = system: de novo pyrimidine biosynthesis in brain tissue; experiment: LC-MS metabolome profiling of brain tissues of treated mice; type: in vivo; settings: individual samples, listed as BAY
Description: In parallel to these experiments, subcutaneous flank xenografts were engrafted into two cohorts of mice, which were treated with the vehicle or R2. […] To investigate the pharmacokinetics of BAY in vivo, its concentration in plasma and brain tissues of healthy mice was directly quantified using an LC-MS approach. BAY was detected in both brains and plasma of mice undergoing treatment, however the plasma concentrations exceeded those of the brain by approximately 10-fold (FIG. 5H-I). To determine whether treatment with BAY affects de novo pyrimidine biosynthesis in vivo, changes in pyrimidine metabolism were measured in the brain in comparison to tumor tissues from the flank (FIG. 5J-K). Although BAY treatment impacted de novo pyrimidine metabolism in vivo in both brain and tumor tissues, with a similar pattern observed in vitro (FIG. 4A), the effect size was stronger in peripheral tumor tissue in comparison to brain tissue. Such findings further reflect the limited capacity for BAY to accumulate within the brain.
For metabolome profiling of tissues, ˜5 mg tissue were homogenized in 225 μL of −20° C. cold, methanol using a Bullet Blender Tissue Homogenizer (NextAdvance, Inc.) Bullet for 3 min. The homogenate was vortexed for 20 s and 750 μL of −20° C. cold methyl tertiary-butyl ether (MTBE) was added, and the mixture was vortexed for 10 s and shaken at 4° C. for 5 min. Next, 188 μL room temperature water was added and vortexed for 20 s to induce phase separation. After centrifugation for 5 min at 14,000×g, the bottom polar phase was collected and dried down. Metabolite extracts were reconstituted in LC-MS grade water/acetonitrile (50:50; v:v), vortexed for 1 min, sonicated for 15 min, and centrifuged at 16,000×g and 4° C. for 15 min to remove insoluble debris.
The LC-MS metabolomics and lipidomics analyses of the 3 NSC and 3 MB cell lines and tissues were performed on a UPLC-MS system consisting of an Orbitrap IQ-X Tribrid coupled to a Horizon Vanquish UPLC system (Thermo Fisher Scientific). The lipidomics analysis was conducted in positive-ion mode with a spray voltage of 3.5 kV while the metabolomics analysis was conducted in negative-ion mode with a spray voltage of −2.5 kV. The following source conditions were identical in both analyses and were set as follows: Sheath gas flow rate, 50 arbitrary units; Aux. gas flow rate, 10 arbitrary units; Sweep gas flow rate, 1 arbitrary unit; Ion transfer tube temp., 300° C.; Vaporizer temp., 350° C. The following acquisition parameters were used for MS1 analysis in both methods: resolution, 120,000, AGC target, 4e5. The maximum IT was set at […] for the lipidomics analysis and 200 ms for the metabolomics analysis. Data-dependent MS/MS parameters for the lipidomics analyses: resolution, 30,000; AGC target, 7.5e4; maximum IT, Dynamic (54 ms); time between Master Scans, 0.6 s; isolation window, 1.0 m/z; NCE/stepped nce, 20, 30, 40; intensity threshold, 5e4; exclude isotopes, on; dynamic exclusion, 3.0 s. Data-dependent MS/MS parameters for the metabolomics analyses: resolution. 15,000; AGC target, 7.5e4; maximum IT, Dynamic (22 ms); time between Master Scans, 0.6 s; isolation window, 1.0 m/z; NCE/stepped nce, 20, 30, 40, 50; intensity threshold, 5e4; exclude isotopes, on; dynamic exclusion, 5.0 s. To increase the total number of MS/MS spectra in the lipidomics analysis, five runs with iterative MS/MS exclusions were performed using the AcquireX function in Xcalibur (Thermo Fisher Scientific). In the metabolomics analysis, three runs with iterative MS/MS exclusions were performed using the AcquireX function. For the lipidomics analysis, chromatographic separation was achieved using a Waters Acquity UPLC CSH C18 (100 mm×2.1 mm i.d.; 1.7 μm) column injecting 2 μL. […] The column was equilibrated for 2 min at 15% B. The flow rate was set to 250 μL/min. The column temperature was maintained at 65° C. […]

[2] = system: p-4EBP1 and EGR1 expression in PDOX; experiment: IHC of time-matched PDOX from brains of treated mice; type: in vivo; settings: PDOX after final dose, vs vehicle-treated PDOX
Description: To determine whether mechanisms identified in vitro extend to the in vivo orthotopic model, time-matched PDOX were isolated from the brains of BAY-treated mice after the final dose of BAY was administered. […] An infrequent EGR1^+ subpopulation of tumor cells was also detected, which varied in the levels of nuclear EGR1 expression (FIG. 10H).
FFPE tissues were sectioned onto slides and then deparaffinized prior to analysis. Samples were stained with H&E for histological examination. In parallel, sections were blocked in 5% BSA (anti-Ki67, anti-4E-BP1 Thr37/46, anti-DHODH) or 5% NGS (anti-EGR1) and stained with primary antibody at 4° C. overnight. Rabbit anti-Ki67 (Thermo Fisher Scientific; Catalogue #RM-9106-S0) was diluted 1:100, rabbit anti-EGR1 (Cell Signaling Technologies; catalogue #4145) was diluted 1:200, rabbit anti-4E-BP1 Thr37/46 (Cell Signaling Technologies; catalogue #2855) was diluted 1:1000, and rabbit anti-DHODH (Proteintech 14877-1-AP) was diluted 1:200. Anti-rabbit HRP-conjugated secondary antibodies (Abcam; Catalogue #ab214880) were used with DAB for development (Vector Laboratories; Catalogue #SK-4100). All slides were scanned using Image Scope (Aperio).

[3] = brain tissue of BAY-treated mice

`CCn1c(CO)nn(-c2cc(O[C@@H](C)C(F)(F)F)c(C(=O)Nc3c(F)cccc3Cl)cc2F)c1=O` [BAY2402234] was tested, and the overall survival (SU_MB002 PDOX) was “increased overall survival”, the tumor burden (SU_MB002 PDOX) was “reduced tumor burden” and the “Glutamine normalized peak intensity (Area)” value [1, 3] was 280983232 and 324326048 and 229454432 and 206007952. For the same molecule, the “N-Carbamoyl aspartic acid normalized peak intensity (Area)” value [1, 3] was 1700352 and 1616900 and 1920988 and 2261730, the “Orotic acid normalized peak intensity (Area)” value [1, 3] was 3366687 and 6999989 and 4291824 and 3862066 and the “UDP-GluNAc normalized peak intensity (Area)” value [1, 3] was 16715786 and 8363980 and 11501715 and 11534621. For the same molecule, the “UTP normalized peak intensity (Area)” value [1, 3] was 22962 and 19870 and 12207 and 19991, the “Uridine 5′-diphosphate (UDP) normalized peak intensity (Area)” value [1, 3] was 133672 and 97588 and 69682 and 73337 and the “Uridine 5′-monophosphate normalized peak intensity (Area)” value [1, 3] was 23218120 and 13372546 and 15616277 and 19018060. For the same molecule, the “Uridine normalized peak intensity (Area)” value [1, 3] was 41449420 and 113184456 and 51214976 and 33664876, the “dihydroorotic acid normalized peak intensity (Area)” value [1, 3] was 1975829 and 3553594 and 1415838 and 2677330 and the “BAY-2402234 normalized peak intensity (Area)” value [1] was 1338708 and 4796862 and 1717137 and 2579631. The “EGR1 expression (IHC)” value [2] was “induced EGR1 expression” and the “p-4EBP1 expression (IHC)” value [2] was “decreased p-4EBP1 expression”.
